Results as given in article PMC12318229, “RACK1A positively regulates opening of the apical hook in Arabidopsis thaliana via suppression of its auxin response gradient” (Proceedings of the National Academy of Sciences of the …, 2025).

Biological target: T1, RACK1A (RECEPTOR FOR ACTIVATED C KINASE 1A) (Arabidopsis thaliana, UniProt O24456)
T1 construct: WD40 seven-bladed beta-propeller scaffold protein
Test: microscale thermophoresis (MST)
Assay type: binding

T1 sequence (O24456 whole entry): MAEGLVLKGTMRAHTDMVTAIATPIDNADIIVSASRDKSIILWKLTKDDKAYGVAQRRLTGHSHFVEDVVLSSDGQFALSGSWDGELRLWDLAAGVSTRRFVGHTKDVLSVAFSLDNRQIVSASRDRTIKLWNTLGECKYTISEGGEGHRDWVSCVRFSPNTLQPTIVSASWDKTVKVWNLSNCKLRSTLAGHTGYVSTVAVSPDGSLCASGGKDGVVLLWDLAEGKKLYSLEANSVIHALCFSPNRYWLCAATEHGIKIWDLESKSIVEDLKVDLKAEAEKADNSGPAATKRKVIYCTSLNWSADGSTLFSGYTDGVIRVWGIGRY

Kd: 32.8 ± 15.7 µM
Structure (SMILES): COc1cc(OC)cc(C(=O)Nc2ccc3ccccc3c2)c1 [DAPIA]
